According to US4207343A, “1-Phenyl-3-(substituted phenoxy)propylamines” (priority 1978, dated 1980):

Assays:
[1] = tested on: norepinephrine uptake by synaptosomes from rat brain; assay: Blockage of norepinephrine uptake in vitro by synaptosomes from rat brain (Table 1); assay type: biochemical; conditions: norepinephrine 0.48 μuM, read-out: IC50 Norepinephrine (concentration that blocks uptake by 50 percent)
From the text: (§1) This blockade is shown both in vitro using radioactive labelled compounds to determine the amount of monoamine uptake by synaptosomes from rat brain, and in vivo by a variety of methods using the procedure of Wong and Bymaster, Biochem. Pharmacol., 25, 1978 (1976). Among the physiologically active monoamines whose uptake is blocked by the compounds of this invention are included serotonin, norepinephrine and dopamine (3,4-dihydroxyphenylethylamine). […] Table 1 which follows sets forth the results of some of the in vitro determinations of the blockage of monoamine uptake by the compounds of this invention. In the table, column 1 gives the R substituent on the 1-phenylpropylamine, colums 2 and 3, the R^1 and R^2 substituents on the amine nitrogen and columns […], the concentration in micrograms per ml. that blocks the uptake of a particular amine by 50 percent (IC50) for the amines, serotonin and norephinephrine. At the head of each column is given the concentration of the particular monoamine used in the experiment.

[2] = tested on: serotonin uptake by synaptosomes from rat brain; assay: Blockage of serotonin uptake in vitro by synaptosomes from rat brain (Table 1); assay type: biochemical; conditions: serotonin 0.1 μuM, read-out: IC50 Serotonin (concentration that blocks uptake by 50 percent)
From the text: as §1

norepinephrine uptake = assay: In vivo decrease in norepinephrine uptake after intraperitoneal injection; conditions: 100 mg./kg level, hydrochloride salt
Experimental: (§2) There was also a decrease in norepinephrine uptake at a 100 mg./kg level but the reduction was less than 50% at this high dose level.

[3] = tested on: uptake of physiologically active monoamines; assay: Blocking of uptake of physiologically active monoamines (serotonin, norepinephrine, dopamine); conditions: in vitro and in vivo
From the text: as §1

uptake of norepinephrine = molecular target: T1, uptake of norepinephrine (Rattus norvegicus, UniProt Q63380); assay: Inhibition of norepinephrine uptake in synaptosomes, kinetics; assay type: biochemical, Sprague-Dawley rats
T1 construct: from tissue; host or cells: synaptosomes of Sprague-Dawley rat brain (cortex, by 'similar experiment')
T1 sequence (Q63380 1-617): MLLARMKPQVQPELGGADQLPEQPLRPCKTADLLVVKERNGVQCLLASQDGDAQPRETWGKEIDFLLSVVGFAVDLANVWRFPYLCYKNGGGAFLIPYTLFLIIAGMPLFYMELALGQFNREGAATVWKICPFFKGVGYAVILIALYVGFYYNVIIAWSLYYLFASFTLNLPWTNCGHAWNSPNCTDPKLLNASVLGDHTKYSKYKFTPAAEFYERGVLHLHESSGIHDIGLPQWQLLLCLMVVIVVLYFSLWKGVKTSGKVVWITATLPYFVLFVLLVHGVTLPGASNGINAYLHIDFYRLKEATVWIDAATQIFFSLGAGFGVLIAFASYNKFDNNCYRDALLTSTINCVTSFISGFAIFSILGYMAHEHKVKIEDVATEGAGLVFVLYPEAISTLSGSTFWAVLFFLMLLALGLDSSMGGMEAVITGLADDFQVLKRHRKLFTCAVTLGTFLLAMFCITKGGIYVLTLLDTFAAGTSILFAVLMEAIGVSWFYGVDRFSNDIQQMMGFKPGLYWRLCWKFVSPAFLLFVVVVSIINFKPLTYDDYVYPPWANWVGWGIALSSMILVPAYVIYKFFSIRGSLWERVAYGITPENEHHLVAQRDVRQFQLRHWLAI
Experimental: (§3) The uptake of serotonin in cortical synaptosomes and in platelets of human plasma in the presence of this compound were studied. Corticosynaptosomes were prepared as follows: Sprague-Dawley rats weighing about 150 g. were decapitated and their brains immediately removed and dissected. Crude synaptosomes were prepared from a 10 percent homogenate in 0.32 M scurose and in 10 μM glucose by differential centrifugation according to the procedure of Wong and Bymaster (loc. cit.).

[4] = tested on: uptake of serotonin by hypothalamic synaptosomes; assay: In vivo inhibition of serotonin uptake by hypothalamic synaptosomes after intraperitoneal injection; conditions: ip, as hydrochloride salt, read-out: calculated ED50 (effective dose), inhibition of serotonin uptake by hypothalamic synaptosomes
Experimental: as §2

[5] = tested on: serotonin uptake versus norepinephrine uptake; assay: Relative effectiveness in inhibiting serotonin versus norepinephrine uptake
[6] = molecular target: uptake of serotonin in cortical synaptosomes (Rattus norvegicus, UniProt P31652); assay: Inhibition of serotonin uptake in cortical synaptosomes, kinetics; assay type: biochemical, Sprague-Dawley rats
Chain of uptake of serotonin in cortical synaptosomes (P31652 whole entry): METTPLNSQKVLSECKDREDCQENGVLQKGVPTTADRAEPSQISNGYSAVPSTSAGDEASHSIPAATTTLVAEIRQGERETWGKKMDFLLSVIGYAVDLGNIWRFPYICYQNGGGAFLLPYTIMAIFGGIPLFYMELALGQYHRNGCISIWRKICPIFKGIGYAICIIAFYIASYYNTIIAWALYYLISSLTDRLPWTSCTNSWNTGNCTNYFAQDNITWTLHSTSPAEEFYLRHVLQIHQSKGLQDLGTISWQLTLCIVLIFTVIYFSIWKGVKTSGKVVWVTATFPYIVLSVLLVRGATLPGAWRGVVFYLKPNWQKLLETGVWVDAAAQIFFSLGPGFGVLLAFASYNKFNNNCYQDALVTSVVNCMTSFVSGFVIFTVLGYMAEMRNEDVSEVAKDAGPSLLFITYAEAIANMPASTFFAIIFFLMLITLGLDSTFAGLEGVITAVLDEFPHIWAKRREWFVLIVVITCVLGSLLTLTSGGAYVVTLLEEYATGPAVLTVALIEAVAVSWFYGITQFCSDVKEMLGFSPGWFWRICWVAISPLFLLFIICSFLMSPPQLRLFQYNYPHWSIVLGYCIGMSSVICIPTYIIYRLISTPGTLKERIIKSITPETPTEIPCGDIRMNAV
Experimental: as §3

[7] = molecular target: dopamine uptake from synaptosomes isolated from corpus striatum (Rattus norvegicus, UniProt P23977); assay: Inhibition of dopamine uptake in synaptosomes isolated from corpus striatum
Chain of dopamine uptake from synaptosomes isolated from corpus striatum (P23977 whole entry): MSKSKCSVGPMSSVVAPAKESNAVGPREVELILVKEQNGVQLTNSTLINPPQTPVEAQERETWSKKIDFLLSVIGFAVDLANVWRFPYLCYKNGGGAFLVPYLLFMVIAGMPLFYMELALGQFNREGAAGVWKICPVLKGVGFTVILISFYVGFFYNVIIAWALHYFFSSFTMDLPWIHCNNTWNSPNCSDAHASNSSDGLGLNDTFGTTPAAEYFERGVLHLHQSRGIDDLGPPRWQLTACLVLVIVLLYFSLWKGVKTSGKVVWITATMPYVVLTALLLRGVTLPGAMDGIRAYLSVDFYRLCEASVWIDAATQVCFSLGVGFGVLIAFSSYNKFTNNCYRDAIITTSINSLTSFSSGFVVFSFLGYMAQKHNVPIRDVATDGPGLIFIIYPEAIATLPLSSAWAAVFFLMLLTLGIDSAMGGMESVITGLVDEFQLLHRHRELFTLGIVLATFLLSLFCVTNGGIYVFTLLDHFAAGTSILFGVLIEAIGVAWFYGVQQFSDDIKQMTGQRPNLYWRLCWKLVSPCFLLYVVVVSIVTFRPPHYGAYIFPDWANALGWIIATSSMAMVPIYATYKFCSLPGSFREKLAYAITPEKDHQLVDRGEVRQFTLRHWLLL

[8] = tested on: uptake of serotonin by platelets; conditions: human platelet-rich plasma; estimated value
Experimental: A study of the uptake of serotonin from platelets was carried out as follows: platelet-rich plasma from human volunteers was prepared according to the method of Sneddon, Brit. […] The platelet uptake of serotonin was determined by the procedure of Horng and Wong, Biochem. Pharmacol., 25, 865 (1976).

[9] = tested on: chronic undifferentiated schizophrenic patients; conditions: oral administration, cited from earlier work

Row | Compound | IC50 [1] [nM] | IC50 [2] [nM] | other results
1 | NC(CCOc1ccccc1)c1ccccc1 (stereo not shown) [phenyl, H, H, 1-Phenyl-3-phenoxypropylamine] | 560 | 5600 | –
2 | CNC(CCOc1ccc(C(F)(F)F)cc1)c1ccccc1 (stereo not shown) [p-trifluoromethylphenyl, CH3, H, N-methyl 1-phenyl-3-(p-trifluoromethylphenoxy)-propylamine] | 10000 | 210 | –
3 | COc1ccccc1OCCC(c1ccccc1)N(C)C (stereo not shown) [o-anisyl, CH3, CH3, N,N-dimethyl 3-(o-anisyloxy)-1-phenylpropylamine] | 300 | 100 | –
4 | Cc1ccccc1OCCC(N)c1ccccc1 (stereo not shown) [o-tolyl, H, H, 3-(o-cresol)-1-phenylpropylamine] | 4600 | 350 | –
5 | COc1ccc(OCCC(c2ccccc2)N(C)C)cc1 (stereo not shown) [p-anisyl, CH3, CH3, N,N-dimethyl 3-(p-anisyloxy)-1-phenylpropylamine] | 5100 | 280 | –
6 | Cc1cccc(OCCC(c2ccccc2)N(C)C)c1 (stereo not shown) [m-tolyl, CH3, CH3] | 5100 | 80 | –
7 | COc1ccccc1OCCC(N)c1ccccc1 (stereo not shown) [o-anisyl, H, H, 1-phenyl-3-(o-anisyloxy)propylamine] | 1400 | 4300 | –
8 | CN(C)C(CCOc1ccccc1)c1ccccc1 (stereo not shown) [phenyl, CH3, CH3, N,N-dimethyl 1-phenyl-3-phenoxypropylamine] | 700 | 1000 | –
9 | COc1cccc(OCCC(N)c2ccccc2)c1 (stereo not shown) [m-anisyl, H, H, 1-Phenyl-3-(m-anisyloxy)propylamine] | 3000 | 2000 | –
10 | COc1ccc(OCCC(N)c2ccccc2)cc1 (stereo not shown) [p-anisyl, H, H, 3-(p-anisyloxy)-1-phenylpropylamine] | 7000 | 350 | –
11 | Cc1ccc(OCCC(c2ccccc2)N(C)C)cc1 (stereo not shown) | 5000 | 80 | reduction in norepinephrine uptake (norepinephrine uptake): less than 50%; block of uptake of monoamines (in words) [3]: particularly active in inhibiting the uptake of biogenic amines; mode of inhibition of norepinephrine uptake (uptake of norepinephrine): competitively inhibited the uptake of norepinephrine; Ki (uptake of norepinephrine; synaptosomes, competitive, read-out: inhibitory constant KI, norepinephrine uptake): 2200 nM; ED50 [4]: 12 mg/kg; relative effectiveness, serotonin versus norepinephrine uptake (in words) [5]: far more effective in inhibiting serotonin uptake than in inhibiting norepinephrine uptake; mode of inhibition of serotonin uptake ([6]; 0.01, 0.05 and 0.1 μM): competitively inhibited uptake of serotonin; Ki ([6]; cortical synaptosomes, compound at 0.01, 0.05 and 0.1 μM, competitive, read-out: inhibitor constant KI, serotonin uptake): 60 nM; Ki [7]: 2500 nM; estimated IC50, serotonin uptake by platelets [8]: 14 nmol
12 | NC(CCOc1ccc(C(F)(F)F)cc1)c1ccccc1 (stereo not shown) [p-trifluoromethylphenyl, H, H, 1-phenyl-3-(p-trifluoromethylphenoxy)propylamine] | 10000 | 320 | –
13 | N[C@@H](Cc1c[nH]c2ccc(O)cc12)C(=O)O [l-5-hydroxytryptophane] | – | – | number of schizophrenic patients improved, of 7 ([9]; 6 of 7 patients): 6 patients; improvement in schizophrenic patients (in words) [9]: mild to moderate improvement
14 | CN(C)C(CCOc1ccc(C(F)(F)F)cc1)c1ccccc1 (stereo not shown) [p-trifluoromethylphenyl, CH3, CH3, N,N-dimethyl 1-phenyl-3-(p-trifluoromethylphenoxy)-propylamine] | 10000 | 210 | –
15 | Cc1ccc(OCCC(N)c2ccccc2)cc1 (stereo not shown) [p-tolyl, H, H] | 2100 | 400 | –
16 | CNC(CCOc1ccccc1)c1ccccc1 (stereo not shown) [phenyl, CH3, H, N-methyl 3-phenoxy-1-phenylpropylamine] | 360 | 1000 | –
17 | Cc1cccc(OCCC(N)c2ccccc2)c1 (stereo not shown) [m-tolyl, H, H] | 5700 | 1400 | –
18 | CNC(CCOc1ccccc1OC)c1ccccc1 (stereo not shown) [o-anisyl, CH3, H, N-methyl 1-phenyl-3-(o-anisyloxy)propylamine] | 500 | 500 | –
